Data published in patent US11214594B2, “Antimicrobial peptide having synergistic antibacterial effect with antibiotics on multidrug resistant bacteria, and use thereof” (priority 2016, dated 2022).
Values after ≈ are worked out from the molar mass of the structure shown. Where two headings read alike, the source gives them in different places. Where a SMILES comes first, the peptide text is derived from it.

Tests used:
E. coli [1] = experiment: microbe, parasite or virus in culture; type: cell-based, Escherichia coli
Procedure, shortened: (§1)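 MIC read-out = lowest peptide level with no bacterial proliferation. Strains diluted in MH medium to 2×10^6 CFU; peptide twofold serial dilutions in MH added 1:1 in microtiter wells.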

MDREC 1229 [2] = experiment: microbe, parasite or virus in culture; type: cell-based, Escherichia coli
Procedure, shortened: as §1

MDRAB 12036 = type: cell-based, Acinetobacter baumannii
Procedure, shortened: as §1

MDRST 8007 = experiment: Minimal inhibitory concentration (MIC), single agent; type: cell-based, Salmonella typhimurium; settings: agent alone
Procedure, shortened: as §1

B. subtilis = experiment: microbe, parasite or virus in culture; type: cell-based, Bacillus subtilis
Procedure, shortened: as §1

S. aureus = experiment: microbe, parasite or virus in culture; type: cell-based, Staphylococcus aureus
Procedure, shortened: as §1

E. coli [3] = experiment: MIC of antibiotic during combined treatment with antimicrobial peptide; type: cell-based, Escherichia coli; settings: for Antibiotic MIC, Erythromycin / Antibiotic MIC, Linezolid / Antibiotic MIC, Vancomycin: E. coli
Procedure, shortened: (§2)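 Read-out is the MIC of each combined solution, obtained from MH-medium dilutions of antibiotic added well by well, with a reversed-condition run as well.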

MDREC 1229 [4] = experiment: as above; type: cell-based, Escherichia coli
Procedure, shortened: (§3)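 Strains in MH medium at 2×10^6 CFU/ml were mixed with peptide diluted stepwise (2:1) from its MIC, then antibiotic dilutions in MH medium were added to give the antibiotic MIC. The reversed set-up, peptide titrated against fixed antibiotic, gave the peptide MIC.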

A. baumannii [5] = experiment: as above; type: cell-based, Acinetobacter baumannii; settings: for Antibiotic MIC, Erythromycin / Antibiotic MIC, Linezolid / Antibiotic MIC, Vancomycin: A. baumannii
Procedure, shortened: as §2

E. coli [6] = type: cell-based, Escherichia coli; settings: E. coli
Procedure, shortened: as §3

MDREC 1229 [7] = type: cell-based, Escherichia coli
Procedure, shortened: as §3

A. baumannii [8] = experiment: MIC of antimicrobial peptide during combined treatment with antibiotic; type: cell-based, Acinetobacter baumannii
Procedure, shortened: as §3

MDRAB 12035 = experiment: as above; type: cell-based, Acinetobacter baumannii
Procedure, shortened: as §3

[9] = peptide treatment concentration 1 μg/ml
[10] = peptide treatment concentration 2 μg/ml
[11] = peptide treatment concentration 4 μg/ml
[12] = peptide treatment concentration 6 μg/ml
[13] = peptide treatment concentration 8 μg/ml
[14] = peptide treatment concentration 16 μg/ml
[15] = peptide treatment concentration 32 μg/ml
[16] = peptide treatment concentration 64 μg/ml
[17] = combined with peptide at 1 μg/ml
[18] = combined with peptide at 2 μg/ml
[19] = combined with peptide at 4 μg/ml
[20] = combined with peptide at 6 μg/ml
[21] = combined with peptide at 8 μg/ml
[22] = combined with peptide at 16 μg/ml
[23] = combined with peptide at 32 μg/ml
[24] = combined with peptide at 64 μg/ml
[25] = with Erythromycin […] (Conc./MIC 1)
[26] = erythromycin 4 μg/ml (Conc./MIC 1/8)
[27] = erythromycin 8 μg/ml (Conc./MIC 1/4)
[28] = erythromycin 16 μg/ml (Conc./MIC 1/2)
[29] = erythromycin 32 μg/ml (Conc./MIC 1)
[30] = vancomycin 512 μg/ml (Conc./MIC 1/2)
[31] = vancomycin 1024 μg/ml (Conc./MIC 1)

## CC[C@H](C)[C@H](NC(=O)[C@H](CCCCN)NC(=O)[C@H](Cc1c[nH]c2ccccc12)NC(=O)[C@@H](N)CCCNC(=N)N)C(=O)N[C@@H](Cc1ccccc1)C(=O)N[C@@H](CCCCN)C(=O)N[C@@H](CCCCN)C(=O)N[C@H](C(=O)N1CCC[C@H]1C(=O)N[C@@H](CCCCN)C(=O)N[C@@H](CC(C)C)C(=O)N[C@@H](CC(C)C)C(=O)N[C@@H](Cc1c[nH]cn1)C(=O)N[C@@H](CO)C(=O)N[C@@H](Cc1ccccc1)C(=O)N[C@@H](CCCCN)C(=O)N[C@@H](CCCCN)C(=O)N[C@@H](Cc1ccccc1)C(N)=O)[C@@H](C)CC [PapMA-7, RWK IFK KIP KLL HSF KKF-NH2] (H-RWKIFKKIPKLLHSFKKF-NH2; N-terminus assumed)
E. coli [1]; 16 h
  Minimal inhibitory concentration MIC: 32 µg/mL (≈ 13.7 µM)
E. coli [1]; E. coli
  Antibacterial activity relative to PapMA-1: at least twice as high
MDREC 1229 [2]
  Minimal inhibitory concentration MIC: 64 µg/mL (≈ 27.3 µM)
MDRAB 12036
  Minimal inhibitory concentration MIC: 32 µg/mL (≈ 13.7 µM)
MDRST 8007
  Minimal inhibitory concentration MIC: 32 µg/mL (≈ 13.7 µM)
B. subtilis
  Minimal inhibitory concentration MIC: >128 µg/mL
S. aureus
  Minimal inhibitory concentration MIC: >128 µg/mL
E. coli [3]; E. coli and MDREC1229
  Synergistic effect of antibacterial activity with existing antibiotics compared with PapMA-1: higher level than the PapMA-1 peptide
E. coli [3]; erythromycin combined with peptide at 1 μg/ml
  Antibiotic MIC, Erythromycin: 64 µg/mL
E. coli [3]; erythromycin combined with peptide at 2 μg/ml
  Antibiotic MIC, Erythromycin: 32 µg/mL
E. coli [3]; erythromycin combined with peptide at 4 μg/ml
  Antibiotic MIC, Erythromycin: 4 µg/mL
E. coli [3]; erythromycin combined with peptide at 6 μg/ml
  Antibiotic MIC, Erythromycin: 2 µg/mL
E. coli [3]; erythromycin combined with peptide at 8 μg/ml
  Antibiotic MIC, Erythromycin: 0.25 µg/mL
E. coli [3]; erythromycin combined with peptide at 16 μg/ml
  Antibiotic MIC, Erythromycin: 0.125 µg/mL
E. coli [3]; erythromycin combined with peptide at 32 μg/ml
  Antibiotic MIC, Erythromycin: 0 µg/mL
E. coli [3]; erythromycin combined with peptide at 64 μg/ml
  Antibiotic MIC, Erythromycin: 0 µg/mL
E. coli [3]; linezolid combined with peptide at 1 μg/ml
  Antibiotic MIC, Linezolid: >128 µg/mL
E. coli [3]; linezolid combined with peptide at 2 μg/ml
  Antibiotic MIC, Linezolid: 128 µg/mL
E. coli [3]; linezolid combined with peptide at 4 μg/ml
  Antibiotic MIC, Linezolid: 8 µg/mL
E. coli [3]; linezolid combined with peptide at 6 μg/ml
  Antibiotic MIC, Linezolid: 4 µg/mL
E. coli [3]; linezolid combined with peptide at 8 μg/ml
  Antibiotic MIC, Linezolid: 4 µg/mL
E. coli [3]; linezolid combined with peptide at 16 μg/ml
  Antibiotic MIC, Linezolid: 1 µg/mL
E. coli [3]; linezolid combined with peptide at 32 μg/ml
  Antibiotic MIC, Linezolid: 0 µg/mL
E. coli [3]; linezolid combined with peptide at 64 μg/ml
  Antibiotic MIC, Linezolid: 0 µg/mL
E. coli [3]; vancomycin combined with peptide at 1 μg/ml
  Antibiotic MIC, Vancomycin: >128 µg/mL
E. coli [3]; vancomycin combined with peptide at 2 μg/ml
  Antibiotic MIC, Vancomycin: 128 µg/mL
E. coli [3]; vancomycin combined with peptide at 4 μg/ml
  Antibiotic MIC, Vancomycin: 32 µg/mL
E. coli [3]; vancomycin combined with peptide at 6 μg/ml
  Antibiotic MIC, Vancomycin: 8 µg/mL
E. coli [3]; vancomycin combined with peptide at 8 μg/ml
  Antibiotic MIC, Vancomycin: 4 µg/mL
E. coli [3]; vancomycin combined with peptide at 16 μg/ml
  Antibiotic MIC, Vancomycin: 1 µg/mL
E. coli [3]; vancomycin combined with peptide at 32 μg/ml
  Antibiotic MIC, Vancomycin: 0 µg/mL
E. coli [3]; vancomycin combined with peptide at 64 μg/ml
  Antibiotic MIC, Vancomycin: 0 µg/mL
MDREC 1229 [4]; [9]
  Antibiotic MIC, Erythromycin: 64 µg/mL
  Antibiotic MIC, Linezolid: 128 µg/mL
  Antibiotic MIC, Vancomycin: >128 µg/mL
MDREC 1229 [4]; [10]
  Antibiotic MIC, Erythromycin: 16 µg/mL
  Antibiotic MIC, Linezolid: 32 µg/mL
  Antibiotic MIC, Vancomycin: >128 µg/mL
MDREC 1229 [4]; [11]
  Antibiotic MIC, Erythromycin: 4 µg/mL
  Antibiotic MIC, Linezolid: 16 µg/mL
  Antibiotic MIC, Vancomycin: 128 µg/mL
MDREC 1229 [4]; [12]
  Antibiotic MIC, Erythromycin: 2 µg/mL
  Antibiotic MIC, Linezolid: 8 µg/mL
  Antibiotic MIC, Vancomycin: 16 µg/mL
MDREC 1229 [4]; [13]
  Antibiotic MIC, Erythromycin: 1 µg/mL
  Antibiotic MIC, Linezolid: 4 µg/mL
  Antibiotic MIC, Vancomycin: 8 µg/mL
MDREC 1229 [4]; [14]
  Antibiotic MIC, Erythromycin: 0.125 µg/mL
  Antibiotic MIC, Linezolid: 2 µg/mL
  Antibiotic MIC, Vancomycin: 2 µg/mL
MDREC 1229 [4]; [15]
  Antibiotic MIC, Erythromycin: 0.0625 µg/mL
  Antibiotic MIC, Linezolid: 1 µg/mL
  Antibiotic MIC, Vancomycin: 1 µg/mL
MDREC 1229 [4]; [16]
  Antibiotic MIC, Erythromycin: 0 µg/mL
  Antibiotic MIC, Linezolid: 0 µg/mL
  Antibiotic MIC, Vancomycin: 0 µg/mL
A. baumannii [5]; A. baumannii and MDRAB 12035
  Synergistic effect of antibacterial activity with existing antibiotics compared with PapMA-1: higher level than the PapMA-1 peptide
A. baumannii [5]; [17]
  Antibiotic MIC, Erythromycin: 16 µg/mL
  Antibiotic MIC, Linezolid: 128 µg/mL
  Antibiotic MIC, Vancomycin: >128 µg/mL
A. baumannii [5]; [18]
  Antibiotic MIC, Erythromycin: 8 µg/mL
  Antibiotic MIC, Linezolid: 32 µg/mL
  Antibiotic MIC, Vancomycin: 64 µg/mL
A. baumannii [5]; [19]
  Antibiotic MIC, Erythromycin: 2 µg/mL
  Antibiotic MIC, Linezolid: 8 µg/mL
  Antibiotic MIC, Vancomycin: 16 µg/mL
A. baumannii [5]; [20]
  Antibiotic MIC, Erythromycin: 1 µg/mL
  Antibiotic MIC, Linezolid: 2 µg/mL
  Antibiotic MIC, Vancomycin: 4 µg/mL
A. baumannii [5]; [21]
  Antibiotic MIC, Erythromycin: 0.125 µg/mL
  Antibiotic MIC, Linezolid: 1 µg/mL
  Antibiotic MIC, Vancomycin: 2 µg/mL
A. baumannii [5]; [22]
  Antibiotic MIC, Erythromycin: 0 µg/mL
  Antibiotic MIC, Linezolid: 0 µg/mL
  Antibiotic MIC, Vancomycin: 0 µg/mL
A. baumannii [5]; [23]
  Antibiotic MIC, Erythromycin: 0 µg/mL
  Antibiotic MIC, Linezolid: 0 µg/mL
  Antibiotic MIC, Vancomycin: 0 µg/mL
A. baumannii [5]; [24]
  Antibiotic MIC, Erythromycin: 0 µg/mL
  Antibiotic MIC, Linezolid: 0 µg/mL
  Antibiotic MIC, Vancomycin: 0 µg/mL
E. coli [6]; [25]
  Peptide MIC: 0 µg/mL
E. coli [6]; with Linezolid […] (Conc./MIC 1)
  Peptide MIC: 0 µg/mL
E. coli [6]; with Vancomycin 1024 μg/ml (Conc./MIC 1)
  Peptide MIC: 0 µg/mL
MDREC 1229 [7]; [25]
  Peptide MIC: 0 µg/mL
MDREC 1229 [7]; with Linezolid 512 μg/ml (Conc./MIC 1)
  Peptide MIC: 0 µg/mL
A. baumannii [8]; [26]
  Peptide MIC during treatment with antibiotic: 2 µg/mL
A. baumannii [8]; [27]
  Peptide MIC during treatment with antibiotic: 2 µg/mL
A. baumannii [8]; [28]
  Peptide MIC during treatment with antibiotic: 1 µg/mL
A. baumannii [8]; [29]
  Peptide MIC during treatment with antibiotic: 0 µg/mL
A. baumannii [8]; linezolid 32 μg/ml (Conc./MIC 1/8)
  Peptide MIC during treatment with antibiotic: 2 µg/mL
A. baumannii [8]; linezolid 64 μg/ml (Conc./MIC 1/4)
  Peptide MIC during treatment with antibiotic: 2 µg/mL
A. baumannii [8]; linezolid […] (Conc./MIC 1)
  Peptide MIC during treatment with antibiotic: 0 µg/mL
A. baumannii [8]; linezolid […] (Conc./MIC 1/2)
  Peptide MIC during treatment with antibiotic: 1 µg/mL
A. baumannii [8]; [30]
  Peptide MIC during treatment with antibiotic: 0.25 µg/mL
A. baumannii [8]; [31]
  Peptide MIC during treatment with antibiotic: 0 µg/mL
A. baumannii [8]; vancomycin […] (Conc./MIC 1/4)
  Peptide MIC during treatment with antibiotic: 0.25 µg/mL
A. baumannii [8]; vancomycin […] (Conc./MIC 1/8)
  Peptide MIC during treatment with antibiotic: 2 µg/mL
MDRAB 12035; [26]
  Peptide MIC during treatment with erythromycin: 2 µg/mL
MDRAB 12035; [27]
  Peptide MIC during treatment with erythromycin: 1 µg/mL
MDRAB 12035; [28]
  Peptide MIC during treatment with erythromycin: 1 µg/mL
MDRAB 12035; [29]
  Peptide MIC during treatment with erythromycin: 0 µg/mL
MDRAB 12035; linezolid 64 μg/ml (Conc./MIC 1/8)
  Peptide MIC during treatment with linezolid: 1 µg/mL
MDRAB 12035; linezolid 512 μg/ml (Conc./MIC 1)
  Peptide MIC during treatment with linezolid: 0 µg/mL
MDRAB 12035; linezolid […] (Conc./MIC 1/2)
  Peptide MIC during treatment with linezolid: 1 µg/mL
MDRAB 12035; linezolid […] (Conc./MIC 1/4)
  Peptide MIC during treatment with linezolid: 1 µg/mL
MDRAB 12035; [30]
  Peptide MIC during treatment with vancomycin: 0.5 µg/mL
MDRAB 12035; [31]
  Peptide MIC during treatment with vancomycin: 0.25 µg/mL
MDRAB 12035; vancomycin […] (Conc./MIC 1/4)
  Peptide MIC during treatment with vancomycin: 1 µg/mL
MDRAB 12035; vancomycin […] (Conc./MIC 1/8)
  Peptide MIC during treatment with vancomycin: 1 µg/mL
